{"source": "patent US20250197337A1", "about": "“CONVERSION OF TRIACETIC ACID LACTONE TO POTASSIUM SORBATE” (priority 2023, published 2025)", "key": {"[1]": {"system": "Escherichia coli 1-894-1", "assay": "microbe, parasite or virus in culture", "method": "Isolated colonies of Escherichia coli 1-894-1 (ATCC, Manassas, Virginia, USA) were picked from the bacterial culture plate and inoculated into 4-5 mL of TSB liquid medium for all bacterial strains. TSB liquid medium was prepared by dissolving a mixture of 17.0 g pancreatic digest of casein, 3.0 g papaic digest of soybean, 2.5 g dextrose, 5.0 g sodium chloride, and 2.5 g dipotassium phosphate in a final volume of 1,000 mL of distilled water, stirring for at least for 20 minutes, and then sterilizing under high pressure ([…] for 20 minutes at 121° C.). To achieve log phase growth, bacterial cultures were incubated at 37° C. for 2-6 hours based on the 0.5 McFarland standard, which corresponds to approximately 1.5×10^8 CFU/mL when the optical density of a bacterial suspension ranged from 0.08 to 0.1. A 1:20 dilution was made by adding 2.0 ml of the original suspension to 38 mL of PBS buffer, and then a 1:10 dilution was prepared by adding 0.01 ml to each well to obtain a final concentration of about 5.0×10^5 CFU/mL.\n(§1) To assess the effectiveness of KS against bacteria and fungi, several tests were conducted in accordance with the Antimicrobial Susceptibility Testing Standards outlined by the Clinical and Laboratory Standards Institute (Malvern, Pennsylvania, USA) (CLSI Mo2-A12, 2015) with some modifications, including the minimal inhibitory concentration (MIC), and an agar diffusion disc test. Potassium sorbate solutions with concentrations ranging from 0.5 to 8.0 mg/ml were combined with bacterial cells (10^5 CFU/mL) and fungal spores (105 conidia/mL) in TSB medium with a pH adjusted to 5.5 for bacteria and in Potato Dextrose Broth (“PDB”) medium (with an original pH of 5.5) for fungi. They were then incubated at 37° C. (for E. coli) for 24 hours and 25° C. (for P. chrysogenum) for 6 days. To determine the minimum inhibitory concentration (“MIC”) of antimicrobial substances, optical density (“OD”) at 600 nm was measured through a Bioscreen C device (Oy Growth Curves Ab Ltd., Turku, Finland) using turbidimetric measurements. The MIC refers to the lowest concentration of antimicrobial that prevents visible growth of microorganisms after incubation. For fungal growth, the MIC was determined based on the inhibition of mycelial growth. The negative control was added the same volume of deionized water without potassium sorbate to observe the growth of bacteria and fungi. Furthermore, to determine assess the survivability of cells and spores when exposed to potassium sorbate for 18 hours, microbial counts were expressed as the logarithm of colony forming units per ml (log CFU/mL). Each measurement was performed in triplicate."}, "[2]": {"system": "Penicillium chrysogenum", "assay": "microbe, parasite or virus in culture", "method": "as §1"}, "[3]": {"system": "P. chrysogenum", "settings": "for spores of P. chrysogenum: concentrations greater than 4 mg/ml, after 6 days of incubation", "method": "as §1"}, "[4]": {"system": "bacteria and fungi", "settings": "against bacteria and fungi", "method": "as §1"}, "[5]": {"system": "E. coli", "settings": "concentration of >3 mg/ml; 24 hours at 37° C."}, "[6]": {"settings": "previous study; cited from earlier work"}, "[7]": {"system": "E. coli O157:H7 (ATCC 35150)", "settings": "separate study; cited from earlier work"}, "[8]": {"system": "Penicillium italicum", "settings": "cited from earlier work"}, "[9]": {"settings": "room temperature; cited from earlier work"}}, "data": [{"smiles": "C/C=C/C=C\\C(=O)[O-].[K+]", "note": "[TAL-derived KS, cis-2, trans-4 potassium sorbate]", "values": [{"measurement": "inhibitory effect on the growth of E. coli", "setting": "[1]; concentration of 2 mg/ml", "result": "mild inhibitory effect"}, {"measurement": "inhibitory effect on the growth of E. coli", "setting": "[1]; concentration of 4 mg/ml", "result": "significant inhibitory effect"}, {"measurement": "antifungal activities compared with commercial KS", "setting": "[2]", "result": "same antifungal activities as commercial KS"}, {"measurement": "MIC against P. chrysogenum (preventing mycelial growth)", "setting": "[2]; PDB medium pH 5.5, 25° C., 6 days", "result": 6000, "unit": "µg/mL"}, {"measurement": "inhibition of P. chrysogenum growth as compared to C-KS", "setting": "[3]; concentration of 6 mg/mL, 6 days of incubation", "result": "significant inhibition"}, {"measurement": "spores of P. chrysogenum", "setting": "[3]", "result": "significantly decreased"}, {"measurement": "antimicrobial activity compared with commercial KS", "setting": "[4]", "result": "comparable antimicrobial activities"}, {"measurement": "inhibitory effects against E. coli (CFU count)", "setting": "[5]", "result": "significant inhibitory effects"}]}, {"smiles": "C/C=C/C=C/C(=O)[O-].[K+]", "note": "[trans, trans-potassium sorbate]", "values": [{"measurement": "antimicrobial activity compared with the mixture of isomers", "setting": "[6]", "result": "higher antimicrobial activity than the mixture of isomers"}]}, {"smiles": "C/C=C/C=C/C(=O)[O-].[K+]", "note": "[commercial KS, trans, trans-2,4-hexadienoic acid potassium salt]", "values": [{"measurement": "MIC", "setting": "[1]; Escherichia coli, 18941, 24 h, pH 5.5, read-out: MIC against E. coli", "result": "2000 to 4000", "unit": "µg/mL"}, {"measurement": "inhibitory effect on the growth of E. coli", "setting": "[1]; concentration of 2 mg/ml", "result": "mild inhibitory effect"}, {"measurement": "inhibitory effect on the growth of E. coli", "setting": "[1]; concentration of 4 mg/ml", "result": "significant inhibitory effect"}, {"measurement": "MIC", "setting": "[2]; Penicillium chrysogenum, 144 h, pH 5.5, read-out: MIC against P. chrysogenum (preventing mycelial growth)", "result": 8000, "unit": "µg/mL"}, {"measurement": "spores of P. chrysogenum", "setting": "[3]", "result": "significantly decreased"}, {"measurement": "inhibitory effects against E. coli (CFU count)", "setting": "[5]", "result": "significant inhibitory effects"}]}, {"smiles": "C/C=C/C=C/C(=O)[O-].[K+]", "note": "[KS, potassium sorbate]", "values": [{"measurement": "MIC against E. coli O157:H7 (ATCC 35150)", "setting": "[7]", "result": 1600, "unit": "µg/mL"}, {"measurement": "MIC against Penicillium italicum", "setting": "[8]", "result": 15000, "unit": "µg/mL"}, {"measurement": "solubility in water", "setting": "[9]", "result": 58.5, "unit": "g per 100 ml"}]}]}
